Tested on: Respiratory syncytial virus (RSV) strain A2
Experiment: RSV antiviral assay (HEp-2, 96 well)
Assay type: cell-based
Conditions: human respiratory syncytial virus, HEp-2, 96 h, read-out: EC50 RSV HEP2 96, HEp-2 cells, RSV A2, MOI=4, 4 days, 96 well; Table 3

Question: Which EC50 does the source give for `COC(C)(C)CCOC(=O)[C@H](C)NP(=O)(OC[C@H]1O[C@@](C#N)(c2ccc3c(N)ncnn23)[C@H](O)[C@@H]1O)Oc1ccccc1` (stereo partly drawn) [Example 75, (3-methoxy-3-methyl-butyl) (2S)-2-[[[(2R,3S,4R,5R)-5-(4-aminopyrrolo[2,1-f][1,2,4]triazin-7-yl)-5-cyano-3,4-dihydroxy-tetrahydrofuran-2-yl]methoxy-phenoxy-phosphoryl]amino]propanoate] here?
Answer: The EC50 was 289 nM.

Question: With `COC(C)(C)CCOC(=O)[C@H](C)NP(=O)(OC[C@H]1O[C@@](C#N)(c2ccc3c(N)ncnn23)[C@H](OC(=O)C(C)C)[C@@H]1OC(=O)C(C)C)Oc1ccccc1` (stereo partly drawn) [Example 76, [(2R,3R,4R,5R)-5-(4-aminopyrrolo[2,1-f][1,2,4]triazin-7-yl)-5-cyano-2-[[[[(1S)-2-(3-methoxy-3-methyl-butoxy)-1-methyl-2-oxo-ethyl]amino]-phenoxy-phosphoryl]oxymethyl]-4-(2-methylpropanoyloxy)tetrahydrofuran-3-yl] 2-methylpropanoate] as the compound, how does the EC50 read?
Answer: Its EC50 is 29.2 nM.

Question: `CCC(CC)COC(=O)[C@H](C)NP(=O)(OC[C@H]1O[C@@](C#N)(c2ccc3c(N)ncnn23)[C@H](OC(=O)C(C)C)[C@@H]1OC(=O)C(C)C)Oc1cccc(C(C)(C)C)c1` (stereo partly drawn) [Example 91, [(2R,3R,4R,5R)-5-(4-aminopyrrolo[2,1-f][1,2,4]triazin-7-yl)-2-[[(3-tert-butylphenoxy)-[[(1S)-2-(2-ethylbutoxy)-1-methyl-2-oxo-ethyl]amino]phosphoryl]oxymethyl]-5-cyano-4-(2-methylpropanoyloxy)tetrahydrofuran-3-yl] 2-methylpropanoate] was tested. Which EC50 did it give?
Answer: Its EC50 is 194 nM.

Question: For `CC(C)CC(=O)O[C@H]1[C@@H](OC(=O)CC(C)C)[C@](C#N)(c2ccc3c(N)ncnn23)O[C@@H]1COP(=O)(N[C@@H](C)C(=O)OC1CCC1)Oc1ccccc1` (stereo partly drawn) [Example 109, (2R,3R,4R,5R)-2-(4-aminopyrrolo[2,1-f][1,2,4]triazin-7-yl)-2-cyano-5-((((((S)-1-cyclobutoxy-1-oxopropan-2-yl)amino)(phenoxy)phosphoryl)oxy)methyl)tetrahydrofuran-3,4-diyl bis(3-methylbutanoate)], which EC50 is on record?
Answer: The EC50 was 43.5 nM.

Question: `CCC(=O)O[C@H]1[C@@H](OC(=O)CC)[C@](C#N)(c2ccc3c(N)ncnn23)O[C@@H]1COP(=O)(N[C@@H](C)C(=O)OCC(CC)CC)Oc1ccc(C(C)(C)C)cc1` (stereo partly drawn) [Example 110, (2R,3R,4R,5R)-2-(4-aminopyrrolo[2,1-f][1,2,4]triazin-7-yl)-5-((((4-(tert-butyl)phenoxy)(((S)-1-(2-ethylbutoxy)-1-oxopropan-2-yl)amino)phosphoryl)oxy)methyl)-2-cyanotetrahydrofuran-3,4-diyl Dipropionate] was tested. Which EC50 did it give?
Answer: Its EC50 is 57.6 nM.

Question: For `COC(C)(C)COC(=O)[C@H](C)NP(=O)(OC[C@H]1O[C@@](C#N)(c2ccc3c(N)ncnn23)[C@H](O)[C@@H]1O)Oc1ccc(C(C)(C)C)cc1` (stereo partly drawn) [Example 111, 2-methoxy-2-methylpropyl ((((2R,3S,4R,5R)-5-(4-aminopyrrolo[2,1-f][1,2,4]triazin-7-yl)-5-cyano-3,4-dihydroxytetrahydrofuran-2-yl)methoxy)(4-(tert-butyl)phenoxy)phosphoryl)-L-alaninate], which EC50 is on record?
Answer: Its EC50 is 846 nM.

Question: For `CCOCCOCCOC(=O)[C@H](C)NP(=O)(OC[C@H]1O[C@@](C#N)(c2ccc3c(N)ncnn23)[C@H](O)[C@@H]1O)Oc1ccc(C(C)(C)C)cc1` (stereo partly drawn) [Example 112, 2-(2-ethoxyethoxy)ethyl ((((2R,3S,4R,5R)-5-(4-aminopyrrolo[2,1-f][1,2,4]triazin-7-yl)-5-cyano-3,4-dihydroxytetrahydrofuran-2-yl)methoxy)(4-(tert-butyl)phenoxy)phosphoryl)-L-alaninate], which EC50 is on record?
Answer: The EC50 was 560 nM.

Question: For `CCC(C)(C)COC(=O)[C@H](C)NP(=O)(OC[C@H]1O[C@@](C#N)(c2ccc3c(N)ncnn23)[C@H](OC(=O)C(C)C)[C@@H]1OC(=O)C(C)C)Oc1ccccc1` (stereo partly drawn) [Example 114, (2R,3R,4R,5R)-2-(4-aminopyrrolo[2,1-f][1,2,4]triazin-7-yl)-2-cyano-5-((((((S)-1-(2,2-dimethylbutoxy)-1-oxopropan-2-yl)amino)(phenoxy)phosphoryl)oxy)methyl)tetrahydrofuran-3,4-diyl bis(2-methylpropanoate)], which EC50 is on record?
Answer: The EC50 was 61 nM.
